Source: patent publication US10494380B2, “Nitrogen-containing tricyclic derivatives having HIV replication inhibitory activity” (priority 2015, dated 2019)

tested on: HIV; assay: not given; type: cell-based; settings: EC50 in the presence of human serum (25%) versus without human serum, MT-4 cells
Method: To confirm the influence of human serum on anti-HIV activity as necessary, human serum was added and determined EC50 in this condition. Human serum (100 μL/well) was dispensed into each anti-HIV active substance at a designated concentration dispensed 50 μL each in advance into a 96-well microtiter plate, and the plate was incubate at room temperature for 1 hour. To the serum-free plate, only culture medium (100 μL/well) was dispensed into 96-well microtiter plate. MT-4 cells (3×10^4 cells/well) was infected with 3 μL/well of HIV solution diluted to an appropriate concentration (600 pfu/50 μL) by the required number of wells and incubated at 37° C. for 1 hour. The infected cells were centrifuged at 1200 rpm for 5 minutes, the supernatant was discarded, and the infected cells were dispersed into culture medium for the required number of wells at 50 μL/well. Infected cell suspension was dispensed into a 96-well microtiter plate of which anti-HIV active substance and human serum prepared in advance. The cell mixture was mixed with a plate mixer and cultured in a CO2 incubator for 4 days. The EC50 in the presence of human serum was calculated in the same manner as in Test Example 1 and the ratio of EC50 in the presence of human serum and EC50 in the absence of human serum was calculated as the potency shift value. […]

Row | SMILES | Potency shift value
1 | Cc1ccc(-c2c([C@H](OC(C)(C)C)C(=O)O)c(C)c3c4c2cc(C)n4CCN3CCN2CCCC2)cc1 [Compound I-130] | 2.7
2 | Cc1c([C@H](OC(C)(C)C)C(=O)O)c(-c2ccc(F)cc2)c2cc(C)n3c2c1N(CC(=O)N(C)C)CC3 [Compound I-161] | 1.9
3 | Cc1c([C@H](OC(C)(C)C)C(=O)O)c(-c2ccc(Cl)cc2)c2cc(C)n3c2c1N(C(=O)C(=O)N(C)C)[C@@H](C)C3 [Compound I-168] | 2.9
4 | Cc1c([C@H](OC(C)(C)C)C(=O)O)c(-c2ccc(Cl)cc2)c2cc(C)n3c2c1N(c1ncc(OCOCC[Si](C)(C)C)cn1)CC3 [Compound I-233] | 12
5 | Cc1c([C@H](OC(C)(C)C)C(=O)O)c(-c2ccc(Cl)cc2)c2cc(C)n3c2c1N(C)C1CNCC13 (stereo partly shown) [Compound I-237] | 2.4
6 | Cc1ccc(-c2c([C@H](OC(C)(C)C)C(=O)O)c(C)c3c4c2cc(C)n4CCN3c2cccc(C(F)(F)F)n2)cc1 [Compound I-285] | 5.1
7 | CCO[C@H](C(=O)O)c1c(C)c2c3c(cc(C)n3CCN2c2ncc(OC)cn2)c1-c1ccc(Cl)cc1 [Compound I-296] | 2.1
8 | CCCO[C@H](C(=O)O)c1c(C)c2c3c(cc(C)n3CCN2c2ncc(OC)cn2)c1-c1ccc(Cl)cc1 [Compound I-297] | 7.6
9 | COc1cnc(N2CCn3c(C)cc4c(-c5ccc(Cl)cc5)c([C@H](OCC5CC5)C(=O)O)c(C)c2c43)nc1 [Compound I-298] | 11
10 | COc1cnc(N2CCn3c(C)cc4c(-c5ccc(Cl)cc5)c([C@H](OCCO)C(=O)O)c(C)c2c43)nc1 [Compound I-317] | 1.3
11 | CCCCO[C@H](C(=O)O)c1c(C)c2c3c(cc(C)n3CCN2c2ncc(OC)cn2)c1-c1ccc(Cl)cc1 [Compound I-325] | 5.4
12 | CCCCCO[C@H](C(=O)O)c1c(C)c2c3c(cc(C)n3CCN2c2ncc(OC)cn2)c1-c1ccc(Cl)cc1 [Compound I-326] | 5.8
13 | Cc1c([C@H](OC(C)(C)C)C(=O)O)c(-c2ccc(Cl)cc2)c2cc(C)n3c2c1N(C)C(c1ccccc1)C3 (stereo partly shown) [Compound I-333] | 6.4

tested on: T125A mutant virus (HIV-1 NL-432 recombinant molecular clone, IN gene); assay: HIV replication inhibition assay against integrase 124/125 mutant virus (Test Example 2); type: cell-based; settings: Human immunodeficiency virus 1, MT4, read-out: EC50 against T125A mutant virus, T125A mutant virus (HIV-1 NL-432 IN gene), MT-4 cells, MTT
Method: Persistently HIV (HTLV-IIIB strain) infected human T cell strain Molt-4 clone8 was cultured in RPMI-1640 medium supplemented with 10% fetal bovine serum and the supernatant was filtered, then the virus titer was measured and stored at −80° C. Polymorphic mutations in HIV-1-infected patients have been observed in amino acids 124 and 125 on the HIV-1 integrase (IN) gene. A point mutation was introduced on the amino acids 124 and/or 125 of IN gene of the HIV-1 NL-432 recombinant molecular clone to generate a mutant virus plasmid construct. These mutant virus plasmids were transfected into 293T cells, and after two days, the supernatant was filtered and then the virus titer was measured and stored at −80° C. Each anti-HIV active substance was diluted with culture medium described above to the designated concentration, which was dispensed into 96-well microtiter plate by 50 μL. Next, 100 μL of MT-4 cell suspension (2.5×10^4 cells) was dispensed into each well, then 50 μl of HIV-containing supernatant diluted with culture medium described above was added thereto (60 pfu (plaque forming unit)).
Cells were cultured at 37° C. in CO2 incubator for four days, then 30 μL of MTT (3-(4,5-dimethylthiazole-2-yl)-2,5-diphenyltetrazolyum bromide) reagent (5 mg/mL in PBS) was added to all wells followed by incubation for 1 hour. In this step, MTT was reduced to insoluble formazan in living cells. To elute generated formazan, 150 μL of the culture supernatant was removed from all wells, then 150 μL of cell lysis solution (10% Triton X-100 and 0.4% (v/v)-HCl containing isopropanol) was added thereto, followed by shaking with a plate mixer. The formazan was measured with micro plate reader at OD: 560 nm and 690 nm (reference wavelength) and the result was compared with the reference wells. EC50 means the compound concentration at which 50% of cytotoxicity caused by virus infection is inhibited.

Row | SMILES | EC50
14 | Cc1ccc(-c2c([C@H](OC(C)(C)C)C(=O)O)c(C)c3c4c2cc(C)n4CCN3CCN2CCCC2)cc1 [Compound I-130] | 27 nM
15 | Cc1c([C@H](OC(C)(C)C)C(=O)O)c(-c2ccc(Cl)cc2)c2cc(C)n3c2c1N(c1ncc(C2=CCOCC2)cn1)CC3 [Compound I-300] | 4.6 nM
16 | Cc1ccc(-c2c([C@H](OC(C)(C)C)C(=O)O)c(Cl)c3c4c2cc(C)n4CCN3c2ncc(C)cn2)cc1 [Compound I-301] | 3.3 nM
17 | COc1cnc(N2CCn3c(C)c(Cl)c4c(-c5ccc(C)cc5)c([C@H](OC(C)(C)C)C(=O)O)c(C)c2c43)nc1 [Compound I-323] | 16 nM
18 | COc1cnc(N2CCn3c(C)c(Cl)c4c(-c5ccc(C)cc5)c([C@H](OC(C)(C)CO)C(=O)O)c(C)c2c43)nc1 [Compound I-324] | 63 nM
19 | Cc1c([C@H](OC(C)(C)C)C(=O)O)c(-c2ccc(Cl)cc2)c2cc(C)n3c2c1N(C)C(c1ccccc1)C3 (stereo partly shown) [Compound I-334] | 93 nM
20 | COCCc1cnc(N2CCn3c(C)cc4c(-c5ccc(C)cc5)c([C@H](OC(C)(C)C)C(=O)O)c(C)c2c43)nc1 [Compound I-336] | 2.7 nM
21 | Cc1ccc(-c2c([C@H](OC(C)(C)C)C(=O)O)c(C)c3c4c2cc(C)n4CCN3c2ncc(Oc3ccccn3)cn2)cc1 [Compound I-339] | 11 nM
22 | Cc1ccc(-c2c([C@H](OC(C)(C)C)C(=O)O)c(C)c3c4c2cc(C)n4CCN3c2ncc(Oc3cnccn3)cn2)cc1 [Compound I-341] | 4.1 nM
23 | Cc1ccc(-c2c([C@H](OC(C)(C)C)C(=O)O)c(C)c3c4c2cc(C)n4CCN3c2ncc(Oc3cccnn3)cn2)cc1 [Compound I-342] | 13 nM
24 | COc1cc(Oc2cnc(N3CCn4c(C)cc5c(-c6ccc(C)cc6)c([C@H](OC(C)(C)C)C(=O)O)c(C)c3c54)nc2)nc(OC)n1 [Compound I-346] | 10 nM

same assay, conditions: T125A mutant virus (HIV-1 NL-432 IN gene), MT-4 cells, MTT; read-out: EC50 against T125A mutant virus

Row | SMILES | EC50
25 | Cc1ccc(-c2c([C@H](OC(C)(C)C)C(=O)O)c(C)c3c4c2cc(C)n4C2(CCCC2)CN3C)cc1 [Compound I-302] | 43 nM
